Experimental data taken from US20250382556A1, “MODULATION OF THE BRANCHED-CHAIN METABOLITE CONTENT OF FRUITS AND VEGETABLES” (BOARD OF TRUSTEES OF MICHIGAN STATE UNIVERSITY, priority 2024, published 2025).

What was measured:
apple peel tissues = experiment: Labeled (1,2-13C2) acetate and methanol feeding of excised apple peel; design: species or system Malus x domestica Borkh.; settings: for reduction of methyl 2-methylbutanoate content: 1 mM rimsulfuron
Procedure: Acetate feedings were likewise performed with excised peel tissues in 22-mL glass vials and 20 μL of treatment solution. ‘Gala’ fruit were fed with 10 mM methanol, 10 mM acetate (unlabeled or 1,2-^13C2) pH 7 balanced with KOH, 0.05% Tween 20, and 0.5 mM rimsulfuron if appropriate. These concentrations were doubled for ‘Empire’ and ‘Jonagold’ fruit.
(§1) Headspace volatiles from small tissue samples incubated in 22 mL vials were adsorbed for 30 s using a solid-phase micro extraction (SPME) fiber (65 μm PDMS-DVB; Supelco Analytical). The SPME fiber was then directly desorbed for 1 min in the injection port of a gas chromatograph (GC; HP-6890, Hewlett-Packard) coupled to a time-of-flight mass spectrometer (MS; Pegasus II, LECO). Whole fruits and banana slices were incubated for 20 min at room temperature (22° C.) in 1-L sealed Teflon jars before a 15-s, or 3-min adsorption and 1- or 2-min desorption. Adsorption times were adjusted to ensure instrument responses were in the linear range. All desorbed volatiles were cryofocused at the beginning of the column by immersing said region of the column in liquid nitrogen. After the desorption period, the run was initiated and the liquid nitrogen removed.
(§2) The conditions of the system were as follows. Injection port: 200° C., splitless, ultra-purified helium (99.999%) carrier gas, front inlet flow 1.5 mL·min^−1 constant, 10 mL·min^−1 purge flow, 11.5 mL·min^−1 total flow. Oven: initial temperature 40° C. for 0 min, ramped by 43° C.·min^−1 to 185° C. for 0 min. Column: HP-5 MS, 30 m×0.25 mm i.d., 0.25 μm film thickness (Agilent). Transfer line temperature 225° C. MS: Electron ionization (−70 eV), ion source temperature 200° C., solvent delay 50 sec, m/z range 29 to 400, detector voltage 1500 V, data collection rate 20 Hz.

apple fruit = experiment: Headspace volatile ester emissions of ripening apple fruit treated with AHAS inhibitor; type: in vivo, Malus x domestica Borkh.; design: key to butyl acetate emissions compared to control / hexyl acetate emissions compared to control / ethyl acetate emissions compared to control / propyl acetate emissions compared to control: —: Dash indicates no significant difference between treatments; settings: for 2-methylbutyl acetate (ile) emissions compared to control / 2-methylpropyl acetate (val) emissions compared to control / butyl acetate emissions compared to control / ethyl acetate emissions compared to control / hexyl acetate emissions compared to control / pentyl acetate emissions compared to control / propyl acetate emissions compared to control / sum of anteiso- and iso-branched-chain esters emissions compared to control: 1 mM daily
Procedure: Whole apple fruit, freshly harvested and at an early stage of ripening (‘ripening’), were held at room temperature (22° C.) and rubbed daily with 3 mL of a freshly made 1mM solution of the inhibitor rimsulfuron (N-((4,6-dimethoxypyrimidin-2-yl)aminocarbonyl)-3-(ethylsulfonyl)-2-pyridinesulfonamide, made from DuPont MATRIX® SG, 25% w/w active ingredient; 0.1% Tween 20) or water solution containing 0.1% Tween 20 before preparation with further treatments. Flowering quince fruit were smaller than the apple fruit and had 2 mL of the control and treatment solutions applied daily at 22° C. ‘Gala’, ‘Empire’, and ‘Jonagold’ apple fruit were treated for four, nine, and seven days before further preparation, respectively. Flowering quince fruit were treated for six days before analysis. Headspace volatile emissions were monitored for three or four representative fruits during the incubation/treatment period to determine appropriate times for further treatments. During method testing, 1 mM solutions of the imidazolinone imazamox was also assessed with apple fruit (2-[4,5-dihydro-4-methyl-4-(1-methylethyl)-5-oxo-1H-imidazol-2-yl]-5-(methoxymethyl)-3-pyridinecarboxylic acid, made from RAPTOR®, 12.1% w/w active ingredient; 0.1% Tween 20).
as §1, §2
Compounds were identified by comparison of the retention time and mass spectrum against authenticated reference standards and spectra (National Institute of Standards and Technology Mass Spectral Search Program Version 2.0, 2001). Volatiles were quantified by calibration with a standard of 59 authenticated, high-purity compounds (Sigma-Aldrich Co. and Fluka Chemical) including the target compounds. The standard was made by placing 0.5 μL of an equal-part mixture of the neat compounds onto a disc of filter paper before quickly placing the filter paper into a 4-L sealed flask fitted with a Mininert valve (for SPME fiber access, and allowed to vaporize for at least 6 hours. SPME adsorption and desorption times of the standard matched that of the samples quantified (e.g., 30-s adsorption, 1 min desorption when quantifying samples in 22-mL vials).
Statistical analysis was performed using SciPy (v1.6.2), RStudio (v2023.03.0+386), or Microsoft Excel (v16.89). Against a specified value: one-tailed t-test Against two treatments: paired t-test for banana, two-sample t-test for apple and flowering quince. Against more than two treatments: Tukey's test following significant ANOVA. Analyses of branched-chain amino acids were one-tailed, all other metabolites were two-tailed. […]

[1] = system: ripe ‘Red Delicious’ apple fruit; experiment: Headspace 2-methylbutanoate esters of ripe apple fruit, time course; type: in vivo, Malus x domestica Borkh.; settings: within three days of treatment
Procedure: ‘Red Delicious’ apple fruit held in refrigerated air for 5 months (see above) plus 1 day at 22° C. and at an advanced ripeness stage (‘ripe’) were treated with rimsulfuron (1 mM) with 0.2% Tween 20 on day 0 of the study and for the next three consecutive days as above described. The fruit were evaluated daily for volatile emissions (see below) for eight days. On days 0, 2, 4, and 7, representative treated and untreated fruit were selected for tissue collection for metabolite analysis (see below). On day 7, samples of fruit peel were fed, as described above, with water or 20 mM isoleucine or α-keto-β-methylvalerate.
Headspace volatiles from small tissue samples incubated in 22 mL vials were adsorbed for 30 s using a solid-phase micro extraction (SPME) fiber (65 μm PDMS-DVB; Supelco Analytical). The SPME fiber was then directly desorbed for 1 min in the injection port of a gas chromatograph (GC; HP-6890, Hewlett-Packard) coupled to a time-of-flight mass spectrometer (MS; Pegasus II, LECO). […]
Compounds were identified by comparison of the retention time and mass spectrum against authenticated reference standards and spectra (National Institute of Standards and Technology Mass Spectral Search Program Version 2.0, 2001). Volatiles were quantified by calibration with a standard of 59 authenticated, high-purity compounds (Sigma-Aldrich Co. and Fluka Chemical) including the target compounds. […]

[2] = ripening Empire apple peel, nine days
[3] = ripening Gala apple peel, four days
[4] = ripening Jonagold apple peel, seven days

Compound: CCS(=O)(=O)c1cccnc1S(=O)(=O)NC(=O)Nc1nc(OC)cc(OC)n1 [rimsulfuron, N-((4,6-dimethoxypyrimidin-2-yl)aminocarbonyl)-3-(ethylsulfonyl)-2-pyridinesulfonamide]
- M+1 and M+2 methyl pentanoate isotopologs collectively more enriched after treatment (apple peel tissues; Empire and Jonagold, on average, 1,2-13C2 acetate): 4.28 fold
- reduction of methyl 2-methylbutanoate content (apple peel tissues; Empire peel fed methanol and acetate): 99.4%
- reduction of methyl 2-methylbutanoate content (apple peel tissues; Jonagold peel fed methanol and acetate): 100%
- enrichment of M+1 isotopolog of methyl hexanoate (apple peel tissues; Jonagold, 1,2-13C2 acetate): slightly more enrichment than controls
- concentration of pentyl acetate, more abundant when treated (apple fruit; all three cultivars (Gala, Empire, Jonagold), on average): 1.63 fold
- 2-methylbutyl acetate (ile) emissions compared to control (apple fruit; [2]): 1.9 ± 0.6%
- 2-methylpropyl acetate (val) emissions compared to control (apple fruit; [2]): 27.3 ± 5.4%
- butyl acetate emissions compared to control (apple fruit; [2]): —
- ethyl acetate emissions compared to control (apple fruit; [2]): 61.4 ± 7.9%
- hexyl acetate emissions compared to control (apple fruit; [2]): —
- pentyl acetate emissions compared to control (apple fruit; [2]): 161.9 ± 16.0%
- propyl acetate emissions compared to control (apple fruit; [2]): 53.8 ± 8.5%
- sum of anteiso- and iso-branched-chain esters emissions compared to control (apple fruit; [2]): 0.8 ± 0.2%
- 2-methylbutyl acetate (ile) emissions compared to control (apple fruit; [3]): 27.0 ± 6.3%
- 2-methylpropyl acetate (val) emissions compared to control (apple fruit; [3]): 36.4 ± 5.0%
- butyl acetate emissions compared to control (apple fruit; [3]): —
- ethyl acetate emissions compared to control (apple fruit; [3]): 57.7 ± 9.3%
- hexyl acetate emissions compared to control (apple fruit; [3]): —
- pentyl acetate emissions compared to control (apple fruit; [3]): 155.3 ± 17.5%
- propyl acetate emissions compared to control (apple fruit; [3]): —
- sum of anteiso- and iso-branched-chain esters emissions compared to control (apple fruit; [3]): 19.0 ± 4.5%
- effect on butyl acetate (apple fruit; ripening Gala, Empire and Jonagold): no discernible effect
- reduction of the total content of anteiso-branched-chain esters in the headspaces (apple fruit; ripening Gala, Empire and Jonagold apple fruits, on average): 91.2%
- 2-methylpropyl acetate in headspace following treatment (apple fruit; ripening Gala, Empire and Jonagold, all three cultivars): reduced
- 2-methylbutyl acetate (ile) emissions compared to control (apple fruit; [4]): 16.1 ± 1.4%
- 2-methylpropyl acetate (val) emissions compared to control (apple fruit; [4]): 67.6 ± 4.1%
- butyl acetate emissions compared to control (apple fruit; [4]): —
- ethyl acetate emissions compared to control (apple fruit; [4]): —
- hexyl acetate emissions compared to control (apple fruit; [4]): 162.7 ± 19.2%
- pentyl acetate emissions compared to control (apple fruit; [4]): 172.3 ± 20.2%
- propyl acetate emissions compared to control (apple fruit; [4]): —
- sum of anteiso- and iso-branched-chain esters emissions compared to control (apple fruit; [4]): 6.5 ± 0.5%
- headspace content of 2-methylbutanoate esters, of control fruits [1]: 15.0%
